Reference: patent US5334757A, “2-(2,3-dicarboxycyclopropyl) glycine and method for producing the same” (Suntory Limited, priority 1991, dated 1994)
pIC50: −log10 of the molar value. “Also recorded” adds a separate entry of the source. Read-outs that look alike come from different tables or passages of the source.

Experiments:
non-NMDA type receptors = settings: Tetrahedron Letters 31 (28), 4049-4052 (1990); Brain Res. 550, 152-156 (1991); cited from earlier work
NMDA type receptors = settings: Japanese Patent Laid-Open No. 093563/1991; cited from earlier work
[1] = system: monosynaptic reflex in the newborn rat spinal cord preparation; settings: reported value for Baclofen, cited from earlier work
[2] = system: newborn rat spinal cord preparation; test: Measurement of depolarizing activity, newborn rat spinal cord preparation; format: cell-based; settings: relative to L-glutamic acid = 1
[3] = system: monosynaptic reflex in the newborn rat spinal cord preparation; test: Determination of monosynaptic reflex inhibition activity in the newborn rat spinal cord preparation; parameters: species or system newborn Wister rat; settings: for concentration inhibiting (50%) monosynaptic reflex relative to the IC50 of Baclofen: as multiple of IC50 of Baclofen; for monosynaptic reflex inhibition (in words) / pIC50: newborn rat spinal cord preparation; for pIC50: read-out: IC50 (50% inhibitory concentration), monosynaptic reflex inhibition
Procedure: The spinal cord of a newborn Wister rat was taken out, as encircled by the spinal column, under etherization.
A single stimulation was applied to a posterior root via a suction electrode and the anterior root reflection potential of the corresponding anterior root was recorded.
DCG-I and DCG-II at various concentration were added to the perfusion solution and the monosynaptic reflexes thus caused were measured.

NMDA receptors = test: Depolarization under perfusion with CPP (NMDA receptor agonism); format: cell-based, newborn rat; settings: for depolarization on adding CPP: 3×10^-5 M CPP perfused; for NMDA type agonistic activity: electrophysiological assay, newborn rat spinal cord preparation

Structure (SMILES): N[C@H](C(=O)O)[C@@H]1[C@@H](COCc2ccccc2)[C@@H]1C(=O)O [(2S,1'R,2'R,3'R)-2-(2-carboxy-3-benzyloxymethylcyclopropyl)glycine]
- non-NMDA type agonist activity (non-NMDA type receptors): agonists of the non-NMDA type

Structure (SMILES): COC[C@H]1[C@H](C(=O)O)[C@@H]1[C@H](N)C(=O)O [(2S,1'R,2'R,3'R)-2-(2-carboxy-3-methoxymethylcyclopropyl)glycine]
- non-NMDA type agonist activity (non-NMDA type receptors): agonists of the non-NMDA type

Structure (SMILES): N[C@H](C(=O)O)[C@@H]1C[C@@H]1C(=O)O [(2S,1'R,2'S)-2-(2-carboxycyclopropyl)glycine]
- NMDA type agonist activity (NMDA type receptors): potent agonist of the NMDA type superior to NMDA

Structure (SMILES): NCC(CC(=O)O)c1ccc(Cl)cc1 (stereo not drawn) [Baclofen]
- IC50 ([1]; in nM): ~500 nM
- pIC50 [1]: ~6.30

Structure (SMILES): N[C@H](C(=O)O)C1[C@@H](C(=O)O)[C@@H]1C(=O)O (stereo partly drawn) [DCG-I, (2S,1'R,2'R,3'R)-2-(2,3-dicarboxycyclopropyl)glycine]
- Activity ratio [2]: 33
- concentration inhibiting (50%) monosynaptic reflex relative to the IC50 of Baclofen [3]: about 1/20
- monosynaptic reflex inhibition (in words) [3]: selectively inhibit monosynaptic reflex even at a low concentration
- pIC50 [3]: 7.22
- depolarization on adding CPP (NMDA receptors): completely inhibited
- NMDA type agonistic activity (NMDA receptors): agonists for NMDA receptors; also recorded: agonist of the NMDA type

Structure (SMILES): N[C@H](C(=O)O)C1[C@H](C(=O)O)[C@H]1C(=O)O (stereo partly drawn) [DCG-II, (2S,1'S,2'S,3'S)-2-(2,3-dicarboxycyclopropyl)glycine]
- Activity ratio [2]: 0.5
- concentration inhibiting (50%) monosynaptic reflex relative to the IC50 of Baclofen [3]: twice
- monosynaptic reflex inhibition (in words) [3]: selectively inhibit monosynaptic reflex even at a low concentration
- pIC50 [3]: 6.00
- depolarization on adding CPP (NMDA receptors): completely inhibited
- NMDA type agonistic activity (NMDA receptors): agonists for NMDA receptors; also recorded: only a week agonistic activity of the NMDA type

Structure (SMILES): N[C@@H](CCC(=O)O)C(=O)O [L-glutamic acid, reference compound]
- Activity ratio [2]: 1
